Reference: the supplement of paper PMC4862054
Values joined by “and” are separate entries in the source; they are usually repeats but may differ in a detail not shown here. Equal values may be shown once.

Test system: SK-BR-3
Assay: not given
Settings: 72 h
Outline: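 Each 384-well plate was pre-loaded with compound dissolved in 5 µl medium, received breast cancer cells in 20 µl suspension, and was incubated 72 h. A 2.5 µl addition of CellTiter-Blue for 2 h at 37 °C was followed by a fluorescence read at 560/590 nm. Data were normalised per plate to vehicle and a positive kill control and checked by Z'-factor. EC50 was fitted from the percent-inhibition dose-response curve, censored at the highest concentration, excluding rows with a drug sensitivity score of zero.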

EC50, CellTiter-Blue viability [nM] | Compound
3470 | Nc1ncn([C@H]2C[C@H](O)[C@@H](CO)O2)c(=O)n1 [Decitabine]
2.63 | CC[C@@H]1C(=O)N(C)c2cnc(Nc3ccc(C(=O)NC4CCN(C)CC4)cc3OC)nc2N1C1CCCC1 [BI 2536]
1520 | CCN(CC)CCCC(C)Nc1c2ccc(Cl)cc2nc2ccc(OC)cc12 (stereo unspecified) [Mepacrine]
116 | Nc1nc2[nH]cc(CCc3ccc(C(=O)N[C@@H](CCC(=O)O)C(=O)O)cc3)c2c(=O)[nH]1 [Pemetrexed]
91.7 | COc1cc([C@@H]2c3cc4c(cc3[C@@H](O[C@@H]3O[C@@H]5CO[C@@H](c6cccs6)O[C@H]5[C@H](O)[C@H]3O)[C@H]3COC(=O)[C@H]23)OCO4)cc(OC)c1O [Teniposide]
4270 | COc1cc2nccc(Oc3ccc(NC(=O)Nc4cc(C)on4)c(Cl)c3)c2cc1OC [Tivozanib]
34.8 | O=C(Cc1ccc(-c2ccc(OCCN3CCOCC3)cc2)cn1)NCc1ccccc1 [KX2-391]
777 | Nc1ccccc1NC(=O)c1ccc(CNC(=O)OCc2cccnc2)cc1 [Entinostat]
16.6 | C=CC(=O)Nc1cc2c(Nc3ccc(F)c(Cl)c3)ncnc2cc1OCCCN1CCOCC1 [Canertinib]
2160 | CC[C@H](Nc1ncnc2[nH]cnc12)c1nc2cccc(F)c2c(=O)n1-c1ccccc1 [CAL-101]

Test system: BT-474
Assay: normalised viability (% of control), CellTiter-Blue; higher = more viable cells (about 100 = DMSO control)
Settings: 0.25 nM; incubation time: 72 h
Outline: (§1)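 Breast cancer cell lines in 20 µl suspension were seeded onto 384-well plates pre-loaded with compound dissolved in 5 µl medium, then incubated 72 h. CellTiter-Blue reagent (2.5 µl) was added for 2 h at 37 °C and fluorescence read at 560/590 nm. Each plate was normalised to vehicle (100) and a positive kill control (0), with Z'-factor quality control. The value is normalised viability at one listed concentration of the series.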

Compound | normalised viability [%]
CC(=O)Nc1cccc(-n2c(=O)n(C3CC3)c(=O)c3c(Nc4ccc(I)cc4F)n(C)c(=O)c(C)c32)c1 | 118

Same assay, conditions: 0.99 nM; incubation time: 72 h

Compound | normalised viability [%]
CCN(CC)CCCC(C)Nc1c2ccc(Cl)cc2nc2ccc(OC)cc12 (stereo unspecified) [Mepacrine] | 113

Same assay, conditions: 1 nM; incubation time: 72 h

Compound | normalised viability [%]
O=C(/C=C/c1cccnc1)NCCCCC1CCN(C(=O)c2ccccc2)CC1 [FK-866] | 112
CC[C@@H]1C(=O)N(C)c2cnc(Nc3ccc(C(=O)NC4CCN(C)CC4)cc3OC)nc2N1C1CCCC1 [BI 2536] | 116

Same assay, conditions: 10 nM; incubation time: 72 h

Compound | normalised viability
Nc1ncn([C@H]2C[C@H](O)[C@@H](CO)O2)c(=O)n1 [Decitabine] | 109% and 104%
CCN(CC)CCCC(C)Nc1c2ccc(Cl)cc2nc2ccc(OC)cc12 (stereo unspecified) [Mepacrine] | 111%
Nc1nc2[nH]cc(CCc3ccc(C(=O)N[C@@H](CCC(=O)O)C(=O)O)cc3)c2c(=O)[nH]1 [Pemetrexed] | 123%
COc1cc([C@@H]2c3cc4c(cc3[C@@H](O[C@@H]3O[C@@H]5CO[C@@H](c6cccs6)O[C@H]5[C@H](O)[C@H]3O)[C@H]3COC(=O)[C@H]23)OCO4)cc(OC)c1O [Teniposide] | 118%
COc1cc2nccc(Oc3ccc(NC(=O)Nc4cc(C)on4)c(Cl)c3)c2cc1OC [Tivozanib] | 111%
O=C(Cc1ccc(-c2ccc(OCCN3CCOCC3)cc2)cn1)NCc1ccccc1 [KX2-391] | 114%
Nc1ccccc1NC(=O)c1ccc(CNC(=O)OCc2cccnc2)cc1 [Entinostat] | 108%
C=CC(=O)Nc1cc2c(Nc3ccc(F)c(Cl)c3)ncnc2cc1OCCCN1CCOCC1 [Canertinib] | 93.7%
CC[C@H](Nc1ncnc2[nH]cnc12)c1nc2cccc(F)c2c(=O)n1-c1ccccc1 [CAL-101] | 108%

Same assay, conditions: 25 nM; incubation time: 72 h

Compound | normalised viability [%]
CC(=O)Nc1cccc(-n2c(=O)n(C3CC3)c(=O)c3c(Nc4ccc(I)cc4F)n(C)c(=O)c(C)c32)c1 | 111

Same assay, conditions: 99 nM; incubation time: 72 h

Compound | normalised viability [%]
CCN(CC)CCCC(C)Nc1c2ccc(Cl)cc2nc2ccc(OC)cc12 (stereo unspecified) [Mepacrine] | 104

Same assay, conditions: 100 nM; incubation time: 72 h

Compound | normalised viability [%]
O=C(/C=C/c1cccnc1)NCCCCC1CCN(C(=O)c2ccccc2)CC1 [FK-866] | 56.8
CC[C@@H]1C(=O)N(C)c2cnc(Nc3ccc(C(=O)NC4CCN(C)CC4)cc3OC)nc2N1C1CCCC1 [BI 2536] | 89.1

Same assay, conditions: 250 nM; incubation time: 72 h

Compound | normalised viability [%]
CC(=O)Nc1cccc(-n2c(=O)n(C3CC3)c(=O)c3c(Nc4ccc(I)cc4F)n(C)c(=O)c(C)c32)c1 | 122

Same assay, conditions: 990 nM; incubation time: 72 h

Compound | normalised viability [%]
CCN(CC)CCCC(C)Nc1c2ccc(Cl)cc2nc2ccc(OC)cc12 (stereo unspecified) [Mepacrine] | 41.1

Same assay, conditions: 1000 nM; incubation time: 72 h

Compound | normalised viability
Nc1ncn([C@H]2C[C@H](O)[C@@H](CO)O2)c(=O)n1 [Decitabine] | 89.4% and 86.7%
O=C(/C=C/c1cccnc1)NCCCCC1CCN(C(=O)c2ccccc2)CC1 [FK-866] | 58.2%
CC[C@@H]1C(=O)N(C)c2cnc(Nc3ccc(C(=O)NC4CCN(C)CC4)cc3OC)nc2N1C1CCCC1 [BI 2536] | 100%
CCN(CC)CCCC(C)Nc1c2ccc(Cl)cc2nc2ccc(OC)cc12 (stereo unspecified) [Mepacrine] | 116%
Nc1nc2[nH]cc(CCc3ccc(C(=O)N[C@@H](CCC(=O)O)C(=O)O)cc3)c2c(=O)[nH]1 [Pemetrexed] | 112%
COc1cc([C@@H]2c3cc4c(cc3[C@@H](O[C@@H]3O[C@@H]5CO[C@@H](c6cccs6)O[C@H]5[C@H](O)[C@H]3O)[C@H]3COC(=O)[C@H]23)OCO4)cc(OC)c1O [Teniposide] | 113%
COc1cc2nccc(Oc3ccc(NC(=O)Nc4cc(C)on4)c(Cl)c3)c2cc1OC [Tivozanib] | 96.4%
O=C(Cc1ccc(-c2ccc(OCCN3CCOCC3)cc2)cn1)NCc1ccccc1 [KX2-391] | 56%
Nc1ccccc1NC(=O)c1ccc(CNC(=O)OCc2cccnc2)cc1 [Entinostat] | 97%
C=CC(=O)Nc1cc2c(Nc3ccc(F)c(Cl)c3)ncnc2cc1OCCCN1CCOCC1 [Canertinib] | 34.4%
CC[C@H](Nc1ncnc2[nH]cnc12)c1nc2cccc(F)c2c(=O)n1-c1ccccc1 [CAL-101] | 109%

Same assay, conditions: 10000 nM; incubation time: 72 h

Compound | normalised viability
Nc1ncn([C@H]2C[C@H](O)[C@@H](CO)O2)c(=O)n1 [Decitabine] | 95.1% and 79.7%
CCN(CC)CCCC(C)Nc1c2ccc(Cl)cc2nc2ccc(OC)cc12 (stereo unspecified) [Mepacrine] | 2.65%
Nc1nc2[nH]cc(CCc3ccc(C(=O)N[C@@H](CCC(=O)O)C(=O)O)cc3)c2c(=O)[nH]1 [Pemetrexed] | 122%
COc1cc([C@@H]2c3cc4c(cc3[C@@H](O[C@@H]3O[C@@H]5CO[C@@H](c6cccs6)O[C@H]5[C@H](O)[C@H]3O)[C@H]3COC(=O)[C@H]23)OCO4)cc(OC)c1O [Teniposide] | 50.8%
COc1cc2nccc(Oc3ccc(NC(=O)Nc4cc(C)on4)c(Cl)c3)c2cc1OC [Tivozanib] | 62.8%
O=C(Cc1ccc(-c2ccc(OCCN3CCOCC3)cc2)cn1)NCc1ccccc1 [KX2-391] | 66.7%
Nc1ccccc1NC(=O)c1ccc(CNC(=O)OCc2cccnc2)cc1 [Entinostat] | 31.9%
C=CC(=O)Nc1cc2c(Nc3ccc(F)c(Cl)c3)ncnc2cc1OCCCN1CCOCC1 [Canertinib] | 16.3%
CC[C@H](Nc1ncnc2[nH]cnc12)c1nc2cccc(F)c2c(=O)n1-c1ccccc1 [CAL-101] | 90.9%

Test system: BT-549
Assay: as above
Settings: 0.25 nM; incubation time: 72 h
Outline: as §1

Compound | normalised viability [%]
CC(=O)Nc1cccc(-n2c(=O)n(C3CC3)c(=O)c3c(Nc4ccc(I)cc4F)n(C)c(=O)c(C)c32)c1 | 87.6

Same assay, conditions: 0.99 nM; incubation time: 72 h

Compound | normalised viability [%]
CCN(CC)CCCC(C)Nc1c2ccc(Cl)cc2nc2ccc(OC)cc12 (stereo unspecified) [Mepacrine] | 87
